Data reported in patent US20020099206A1, “Cephalosporin crystals and process for their preparation” (priority 1997, published 2002).

Assay: stability of Compound (1a) under crystallization conditions (Comparative Test Examples 1 and 2)
Format: physicochemical
Protocol: Subsequently, stability of Compound (1a) under crystallization conditions was tested. The results are shown in the following Comparative Test Examples 1 and 2.
200 mg of oily 7-phenylacetamido-3-chloromethyl-cephem-4-carboxylic acid p-methoxybenzyl ester was dissolved in 0.2 ml of dimethylformamide. The solution was pored into 1 ml of methanol precooled to 3° C. to precipitate crystals. The mixture was stirred at 3 to 5° C. for 20 hours. Then, an ethyl acetate/water mixture was added to dissolve the crystals, and the solution was subjected to extraction. The organic layer was dried over sodium sulfate. The resulting solution was filtered, and the filtrate was concentrated under reduced pressure. The concentrate was purified by silica gel chromatography (Wako gel C-200, benzene/ethyl acetate=4/1), giving 197 mg of oily 7-phenylacetamido-3-chloromethyl-cephem-4-carboxylic-acid-p-methoxybenzyl ester (yield: 99%).
200 mg of oily 7-phenylacetamido-3-chloromethyl-cephem-4-carboxylic acid p-methoxybenzyl ester was dissolved in 0.2 ml of dimethylformamide. The solution was pored into 1 ml of methanol to precipitate crystals. The mixture was stirred at 30 to 35° C. for 20 hours. Then, an ethyl acetate/water mixture was added to dissolve the crystals, and the solution was subjected to extraction. The organic layer was dried over sodium sulfate. The resulting solution was filtered, and the filtrate was concentrated under reduced pressure.
For example, thin-layer chromatography of the obtained product (conditions: Merk Pre-Coated TLC Plates SILICA GEL 60F254 (Merk); benzene/ethyl acetate=4/1) developed color in zones corresponding to 7-phenylacetamide-3-chloromethyl-cephem-4-carboxylic acid p-methoxybenzyl ester (Compound (1a)) (Rf=0.46), 7-phenylacetamide-3-methoxymethyl-cephem-4-carboxylic acid p-methoxybenzyl ester (Compound A) (Rf=0.33) and decomposition product of Compound (1a) (Rf≈0, in the vicinity of the placing point). […]

[1] = dimethylformamide solution poured into uncooled methanol, stirred at 30 to 35° C. for 20 hours

7-phenylacetamido-3-chloromethyl-cephem-4-carboxylic acid p-methoxybenzyl ester recovered (yield) (dimethylformamide solution poured into methanol precooled to 3° C., stirred at 3 to 5° C. for 20 hours): 99%
Compound (1a) recovered (yield) [1]: 71%
highly polar component Compound A formed (yield) [1]: 9%
Structure (SMILES): COc1ccc(COC(=O)C2=C(CCl)CS[C@@H]3C(NC(=O)Cc4ccccc4)C(=O)N23)cc1 (stereo partly drawn) [Compound (1a), 7-phenylacetamido-3-chloromethyl-cephem-4-carboxylic acid p-methoxybenzyl ester]
